IC50 data for two compounds are collected here from ChEMBL document CHEMBL5727850, “Haloallylamine indole and azaindole derivative inhibitors of lysyl oxidases and uses thereof” (2020).

For orientation: IC50 means the concentration that gives 50% inhibition.

This assay is described as follows: Inhibition Assay: LOX and LOXL2: Lysyl oxidase (LOX) is an extracellular copper dependent enzyme which oxidizes peptidyl lysine and hydroxylysine residues in collagen and lysine residues in elastin to produce peptidyl alpha-aminoadipic-delta-semialdehydes. […] There are five LOX family members; these are LOX, LOXL1, LOXL2, LOXL3 and LOXL4. LOX and LOXL family members can be acquired as recombinant active proteins from commercial sources, or extracted from animal tissues like bovine aorta, tendons, pig skin; or prepared from cell cultures. The inhibitory effects of the compounds of the present invention were tested against the given LOX-LOXL preparation using a high-throughput coupled colorimetric method (Holt A. and Palcic M., A peroxidase-coupled continuous absorbance plate-reader assay for flavin monoamine oxidases, copper-containing amine oxidases and related enzymes. Nat. Protoc. 2006; 1: 2498-2505). The assay was developed using either 384 or 96 well format. Briefly, in a standard 384 well plate assay 25 μL of a dilution of any of the isoenzymes and orthologues in 1.2 M urea, 50 mM sodium borate buffer (pH 8.2) were added into each well in the presence of 1 μM mofegiline and 0.5 mM pargyline (to inhibit SSAO and MAO-B and MAO-A, respectively). […].

The structures appear in SMILES notation.

In the case of `Cc1c(-c2cccc(S(=O)(=O)N(C)C)c2)c2cc(C(=O)N(C)C)ccc2n1C/C(F)=C/CN`, the IC50 is more than 300 nM.
Turning to `Cc1c(-c2cccc(S(=O)(=O)N(C)C)c2)c2nc(C(=O)N(C)C)ccc2n1C/C(F)=C/CN`, the IC50 was more than 300 nM.
